# Tests used:
# [1] = background art; cited from earlier work
# zebrafish [2] = details: zebrafish whose brain is damaged by PTZ or the like; stated as known; cited from earlier work
# zebrafish [3] = assay: Dark/light transition of zebrafish; format: in vivo; details: dark and light conditions at 10-minute intervals, distance moved at 2-minute intervals; FIGS. 3, 4, 5
# Experimental: The dark/light transition of zebrafish treated with the fermented rice bran powder obtained according to Example 1 was measured. Specifically, dark and light conditions were given at 10-minute intervals, and graphs for the distance moved at 2-minute intervals were measured (see FIGS. 3, 4, and 5).
compound,measurement,setting,value
"O=C(O)CCCO [GHB, Gamma hydroxybutyrate]",half-life (in words),[1],short half-life
"NC(=O)C[S+]([O-])C(c1ccccc1)c1ccccc1 (stereo not shown) [modafinil, Modafinil]",half-life,[1],≥ 15 h
"C1CCc2nnnn2CC1 [PTZ, Pentylenetetrazol]",color recognition,zebrafish [2],color cannot be normally recognized
same,behavior pattern to dark/light (distance moved),zebrafish [3],moved regardless of the light/dark division

# Reference: patent publication US20220296667A1, “COMPOSITION FOR A[…] TREATING NARCOLEPSY, […] RICE BRAN POWDER AS ACTIVE INGREDIENT, AND PREPARATION METHOD THEREFOR” (RAPHAGEN, priority 2019, published 2022)
